Key:
[1] = tested on: HCC-1143 cells (ER-negative breast cancer cell line); assay: LDH release assay, cell survival of HCC-1143 monolayers; format: cell-based, human; settings: FIG. 2; raloxifene 1000 nM
Procedure: (§1) Cell survival (%) for each cell line is calculated according to a standard lactate dehydrogenase (LDH) release assay, where […] (0% survival) corresponds to cells treated with 50 μg/ml of Mitomycin C and […] (100%) survival corresponds to cells treated only with complete medium.
The cell line was maintained in RPMI-1640 (Sigma) supplemented with 2 mM L-Gln (Sigma), 10 mM HEPES (Sigma), 1 mM Na-Pyr (Sigma), 100 IU Penicillin, 100 μg/ml Streptomycin (Sigma) and, as complete medium, 10% FCS (Sigma).
Cultures of MCF-7, HCC-1143 and OVCAR-3 were harvested at approximately 80% confluency by trypsinisation and after washing once in serum free medium, used to seed Flat bottom 96-well plates (Nunc) with 5×10^3 cells per well in 200 μl of complete medium.
Following 18 hours incubation at 37° C., the test compounds were removed and 200 μl/well of complete medium added to each well. […]
(§2) The detection reagent from the CytoTox 96® Non-Radioactive Cytotoxicity Assay kit (Promega) was prepared as per manufacturer's instruction and 50 μl/well of detection reagent was added to all wells. After 30 minutes incubation in the dark at room temperature, the reaction was stopped by adding 50 μl/well of Stop solution to all wells and the absorbance of each well at 490 nm was established.

[2] = cited from earlier work
[3] = tested on: OVCAR-3 cells (ovarian ER positive cell line); assay: LDH release assay, cell survival of OVCAR-3 monolayers; format: cell-based, human; settings: FIG. 2; raloxifene 1000 nM
Procedure: as §1
Finally, the NIH:OVCAR-3 cells (ATTC, catalogue no. HTB-161) was isolated from an ovary adenocarcinoma in a person and it expresses the estrogen receptor. The cell line was maintained in RPMI-1640 (Sigma) supplemented with 2 mM L-Gln (Sigma), 10 mM HEPES (Sigma), 1 mM Na-Pyr (Sigma), 0.01 mg/ml Bovine Insulin (Sigma), 100 IU Penicillin, 100 μg/ml Streptomycin (Sigma) and, as complete medium, 20% FCS (Sigma).
(§3) Cultures of MCF-7, HCC-1143 and OVCAR-3 were harvested at approximately 80% confluency by trypsinisation and after washing once in serum free medium, used to seed Flat bottom 96-well plates (Nunc) with 5×10^3 cells per well in 200 μl of complete medium. […]
as §2

MCF-7 tumors = assay: In vivo anti-tumor activity, MCF-7 tumors in nude female mice; settings: i.v. retro-orbital, days 36 and 43
Procedure: Animals received intravenous treatment via the retro-orbital route on days 36 and 43 post challenge.
Thirty (30) nude female mice (nu/nu), 6-8 weeks old, were challenged subcutaneously with 2×10^7 MCF-7 cells delivered in combination with Matrigel (Becton Dickinson) (200 μl total volume). Weight loss and tumor growth (calculated by taking two perpendicular measurements and applying the formula [Π*((min measurement)/2)^2*(maximum measurement)]) were monitored daily until the end of the study.
Statistical differences were calculated using non-parametric Mann-Whitney assays and considered significant if p<0.05.
Control animals received either PBS or the same doses of raloxine via the same route.
Due to the natural susceptibility of MCF-7 cells to estrogen production, daily tumor volume variation in the nude mice model used follows sinusoidal pattern with a period of approximately 4/5 days (see FIG. 3). The duration of this period correlates with the duration of the oestrus cycle in mice (i.e. 4/5 days). As a result, and in order to facilitate experimental analysis, FIG. 3 represents tumor volume variations for each experimental group both as daily changes and as moving averages (i.e. a trend line) for overlapping 5 day periods (i.e. overlap is 4 days per point).

[4] = tested on: MCF-7 cells (ER-positive breast cancer cell line); assay: LDH release assay, cell survival of MCF-7 monolayers; format: cell-based, human; settings: FIG. 2; saporin 500 nM, raloxifene 1000 nM, alone or as admixture
Procedure: as §1
The MCF-7 cell line (ECACC, catalogue no. 86012803) was isolated from a breast adenocarcinoma in a person and it expresses the estrogen receptor. The cell line was maintained in Minimum Essential Medium (Sigma) supplemented with 2 mM L-Gln (Sigma), 1% Non Essential amino acids (Sigma), 100 IU Penicillin, 100 μg/ml Streptomycin (Sigma) and, as complete medium, 10% Foetal Calf Serum (FCS) (Sigma).
as §3, §2

[5] = patients taking raloxifene daily

Compound	lethal effect on HCC-1143 cells [1]	reducing the incidence of estrogen receptor positive breast cancer ([2]; clinical trial, vs tamoxifen)	fewer blood clots than women taking tamoxifen daily [2, 5] [%]	fewer uterine cancers than women taking tamoxifen daily [2, 5] [%]	lethal effect on OVCAR-3 cells [3]	tumor growth compared to PBS control group (MCF-7 tumors; peak blood concentration 0.1 nM conjugate or 0.1 ng/ml raloxifene)	tumor growth compared to PBS control group (MCF-7 tumors; peak blood concentration 0.2 nM conjugate or 0.2 ng/ml raloxifene)	tumor volume / tumor growth (MCF-7 tumors; peak blood concentration 0.4 nM conjugate or 0.4 ng/ml raloxifene, vs PBS)	lethal effect on MCF-7 cells [4]
O=C(c1ccc(OCCN2CCCCC2)cc1)c1c(-c2ccc(O)cc2)sc2cc(O)ccc12 [Raloxifene]	not against	as effective as tamoxifen	29	36	not against	did not result in any changes	did not result in any changes	maintenance or slight reduction of tumor size over time	selective significant (p<0.05) effect
saporin									no significant (p>0.05) lethal effect

Reference: patent US9056140B2, “Pharmaceutical compound” (priority 2007, dated 2015)
